Source: patent US20150017717A1, “CULTURE MEDIUM FOR EUKARYOTIC CELLS” (Friesland Brands B.V., priority 2012, published 2015)

How the values were obtained:
[1] = system: IgG expressing CHO cell line (CHO-2: ATCC CRL 11397, producing IgG4); assay: Specific IgG production of CHO cells in supplemented chemically defined medium (sandwich ELISA / AUC); format: cell-based, Chinese hamster; settings: ratio of cumulative IgG production (mg/ml) and AUC at day 11
Experimental: (§1) The cell culture assay was carried out in commercially available IS CHO-CD medium (Irvine Scientific, Cat. No. 91119). To this media, L-Glutamine (2 mM), pluronic acid, hypoxanthine (100 μM) and thymidine (15 μM) were added. Penicillin and streptomycin were added to prevent any bacterial growth during the growth assay. The media was supplemented with methyl-L-3-phenyl lactate or mucic acid, both purchased from Sigma Aldrich, Germany, in varying concentrations (1×10^−3 to 1×10^−1% (w/v), see Table 2). The supplemented medium was mixed with a vortex mixture, filtered using a 0.22 μm filter and subsequently used in a growth assay.
(§2) An IgG expressing CHO cell line was used (CHO-2: ATCC CRL 11397, producing IgG4). The cell lines were grown in the adherent conditions for a few passages and once confluent, they were transferred to animal-free conditions in the supplemented media described in Example 2.
(§3) To measure growth and production curves, Chinese hamster ovary (CHO) cells were grown in suspension culture in baffled flasks. 20×10^6 cells were transferred in 25 ml media to the baffled flasks. Chemically defined media with and without added alpha-hydroxy acid derivatives were tested. No fresh media was added during the growth assay. Cells were counted using the CEDEX HiRes cell counter (Innovatis, Germany). The cell counts were used to calculate the area under the growth curve and represented as dimensionless area under curve (AUC) values as described in detail in Ling, C. X, Huang, J. and Zhang, H. (2003), International joint conferences on artificial intelligence, pp. 329-341. The supernatant samples were taken every alternate days for the IgG production measurements. IgG production was measured using sandwich ELISA method. The specific IgG production was calculated by taking the ratio of cumulative IgG production (in mg/ml) and AUC measured at day 11 of the growth assay. The cells were visually inspected using a phase contrast microscope (Zeiss Axiovert 25, 400× magnification). […] Only single cells were observed and no aggregation of cells was seen. The cell shape was also positively affected. […] This was in contrast with the observation that a lot of cell aggregates were present in CHO cell cultures grown in chemically defined medium without alpha-hydroxy acid derivatives.

[2] = system: IgG expressing CHO cell line (CHO-2: ATCC CRL 11397, producing IgG4); assay: Cell growth of CHO cells in suspension culture (area under growth curve, CEDEX cell counts); format: cell-based, Chinese hamster; settings: dimensionless AUC
Experimental: as §1, §2, §3

[3] = system: cell culture (antibody production); assay: Linear regression of antibody production in cell culture assays against relative concentration of components in plant protein hydrolysates; format: cell-based; settings: linear regression over plant protein hydrolysates, MS Excel SLOPE function
Experimental: Commercial plant protein hydrolysates like SE50MAF-UF, WGE80M-UF, CNE80M-UF, PCE80B obtained from FrieslandCampina Domo, USA were analysed by Liquid chromatography/Mass Spectrometry (LC/MS, LC/MS2) using a Waters Acquity UPLC and a Thermo-Finnigan LTQ mass spectrometer, which consists of an electrospray ionization (ESI) source and linear ion-trap (LIT) mass analyzer. The sample extract was split into two aliquots, dried, then reconstituted in acidic or basic LC-compatible solvents. One aliquot was analyzed using acidic positive ion optimized conditions and the other using basic negative ion optimized conditions in two independent injections using separate dedicated columns. Extracts reconstituted in acidic conditions were gradient eluted using water and methanol both containing 0.1% formic acid, while the basic extracts, which also use water/methanol, contain 6.5 mM ammonium bicarbonate. The MS analysis alternated between MS and data-dependent MS2 scans using dynamic exclusion. Biochemicals were identified by comparison to metabolomic library entries of purified standards or recurrent unknown entities. The combination of chromato-graphic properties and mass spectra gives an indication of a match to the specific compound or an isobaric entity. Thus, an overview of the biochemical components and their relative concentration present in plant protein hydrolysates was generated. Furthermore, all the hydrolysates were tested in the cell culture assays for cell growth and antibody production. […] Using the SLOPE function of Microsoft Excel 2003, the correlation between antibody production and relative concentration of the components was calculated, the results of which are presented in Table 1 below. The higher the positive slope, the higher the importance of a biochemical component in the cell culture. p-values, also calculated using MS Excel's correlation regression function, represent the significance of the values, with the lower the p-value (all between 0 and 1), the more significant the measured value.

SMILES | Specific IgG production after 11 days ([1]; 1 × 10^−1 % w/v added) | Cell growth (area under curve) after 14 days ([2]; 1 × 10^−1 % w/v added) | SLOPE (correlation of antibody production and relative concentration of the component) [3] | Specific IgG production after 11 days ([1]; 1 × 10^−2 % w/v added) | Specific IgG production after 11 days ([1]; 1 × 10^−3 % w/v added) | Cell growth (area under curve) after 14 days ([2]; 1 × 10^−2 % w/v added) | Cell growth (area under curve) after 14 days ([2]; 1 × 10^−3 % w/v added)
COC(=O)[C@@H](O)Cc1ccccc1 [Methyl-L-3-phenyl lactate, methyl-L-3-phenyl lactate] | 77.80 | 46.70 | – | – | – | – | –
O=C(O)[C@@H](O)[C@H](O)[C@H](O)[C@@H](O)C(=O)O [Mucic acid, mucic acid] | 84.61 | 48.29 | 2108.11 | 90.27 | 90.85 | 49.64 | 49.88
CC(C)CC(O)C(=O)O (stereo not drawn) [alpha-hydroxyisocaproic acid] | – | – | 1654.23 | – | – | – | –
CC(C)C(O)C(=O)O (stereo not drawn) [alpha-hydroxyisovaleric acid] | – | – | 2830.96 | – | – | – | –
